Laboratory results taken from patent publication US20240409571A1 (priority 2023, published 2024).

How the values were obtained:
[1] = tested on: CjCst-I; format: biochemical, Campylobacter jejuni
[2] = tested on: CjCst-II; format: biochemical, Campylobacter jejuni

| Structure (SMILES) | activity towards sialylating [1] | Sialylation by CjCst-II, acceptor GM3ßSph [2] | Sialylation by CjCst-II, acceptor GM3βProN3 [2] |
| --- | --- | --- | --- |
| CCCCCCCCCCCCC/C=C/[C@@H](O)[C@@H](N)CO [GD1b sphingosine] | very good activity | – | – |
| CC(=O)N[C@H]1[C@H](O)[C@H](NC(C)=O)C(O)O[C@@H]1CO (stereo partly drawn) [ManNAc4NAc, 4-acetamido-4-deoxy-N-acetylmannosamine] | – | No reaction | No reaction |
